According to PubChem BioAssay AID1259407 (Chemical Carcinogenesis Research Information System (CCRIS), 2018):
The source made the active and inactive calls. How the calls were made is not given here.

Test system: CCRIS mutagenicity, Ames/micronucleus/aberration tests
Assay: CCRIS mutagenicity studies

Structure (SMILES): COC(=O)Nc1nc2ccccc2[nH]1
- mutagenic call (End Point: IN VITRO CHROMOSOMAL ABERRATIONS, Test System: HUMAN PERIPHERAL LYMPHOCYTES, Metabolic Activation: RAT, LIVER, S-9, AROCLOR 1254): inactive; negative
- mutagenic call (End Point: IN VITRO MICRONUCLEUS, Test System: HUMAN PERIPHERAL LYMPHOCYTES, Metabolic Activation: NONE): active; positive
- mutagenic call (End Point: IN VITRO MICRONUCLEUS, Test System: V79 CELLS, Metabolic Activation: NONE): active; positive
- mutagenic call (End Point: In vitro micronucleus, Test System: Mouse lymphoma L5178Y cells, Metabolic Activation: None): active; positive
- mutagenic call (End Point: In vivo micronucleus, Test System: Micronucleated, binucleated and multinucleated hepatocytes, Species: Mouse, Strain/Sex: ddY/Male, Route: Oral): active; positive for micronucleated, binucleated and multinucleated cells when agent adm
- mutagenic call (Test System: AMES SALMONELLA TYPHIMURIUM, Strain/Indicator: TA97, Metabolic Activation: NONE, Method: PREINCUBATION): inactive; negative
- mutagenic call (Test System: AMES SALMONELLA TYPHIMURIUM, Strain/Indicator: TA97, Metabolic Activation: NONE, Method: STANDARD PLATE): inactive; negative
- mutagenic call (Test System: AMES SALMONELLA TYPHIMURIUM, Strain/Indicator: TA97, Metabolic Activation: RAT, LIVER, S-9, PHENOBARBITAL AND BETA-NAPHTHOFLAVONE, Method: PREINCUBATION): active; positive
- mutagenic call (Test System: AMES SALMONELLA TYPHIMURIUM, Strain/Indicator: TA97, Metabolic Activation: RAT, LIVER, S-9, PHENOBARBITAL AND BETA-NAPHTHOFLAVONE, Method: STANDARD PLATE): inactive; negative
- mutagenic call (Test System: AMES SALMONELLA TYPHIMURIUM, Strain/Indicator: TA97A, Metabolic Activation: NONE, Method: STANDARD PLATE): inactive; negative
- mutagenic call (Test System: AMES SALMONELLA TYPHIMURIUM, Strain/Indicator: TA97A, Metabolic Activation: PLANT, HOMOGENATE, S-14, Method: STANDARD PLATE): inactive; negative
- mutagenic call (Test System: AMES SALMONELLA TYPHIMURIUM, Strain/Indicator: TA97A, Metabolic Activation: S-9, Method: STANDARD PLATE): inactive; negative
- mutagenic call (Test System: AMES SALMONELLA TYPHIMURIUM, Strain/Indicator: TA98, Metabolic Activation: HAMSTER, LIVER, S-9, AROCLOR 1254 (10%), Method: PREINCUBATION): active; positive
- mutagenic call (Test System: AMES SALMONELLA TYPHIMURIUM, Strain/Indicator: TA98, Metabolic Activation: NONE, Method: PREINCUBATION): inactive; negative
- mutagenic call (Test System: AMES SALMONELLA TYPHIMURIUM, Strain/Indicator: TA98, Metabolic Activation: PLANT, HOMOGENATE, S-14, Method: STANDARD PLATE): inactive; negative
- mutagenic call (Test System: AMES SALMONELLA TYPHIMURIUM, Strain/Indicator: TA98, Metabolic Activation: RAT, LIVER, S-9, AROCLOR 1254 (10%), Method: PREINCUBATION): active; positive
- mutagenic call (Test System: AMES SALMONELLA TYPHIMURIUM, Strain/Indicator: TA98, Metabolic Activation: RAT, LIVER, S-9, PHENOBARBITAL AND BETA-NAPHTHOFLAVONE, Method: PREINCUBATION): active; positive
- mutagenic call (Test System: AMES SALMONELLA TYPHIMURIUM, Strain/Indicator: TA98, Metabolic Activation: RAT, LIVER, S-9, PHENOBARBITAL AND BETA-NAPHTHOFLAVONE, Method: STANDARD PLATE): active; positive
- mutagenic call (Test System: AMES SALMONELLA TYPHIMURIUM, Strain/Indicator: TA98, Metabolic Activation: RAT, LIVER, S-9, PHENOBARBITONE, Method: PREINCUBATION): inactive; negative
- mutagenic call (Test System: AMES SALMONELLA TYPHIMURIUM, Strain/Indicator: TA98, Metabolic Activation: S-9, Method: STANDARD PLATE): inactive; negative
- mutagenic call (Test System: AMES SALMONELLA TYPHIMURIUM, Strain/Indicator: TA100, Metabolic Activation: HAMSTER, LIVER, S-9, AROCLOR 1254 (10%), Method: PREINCUBATION): inactive; negative
- mutagenic call (Test System: AMES SALMONELLA TYPHIMURIUM, Strain/Indicator: TA100, Metabolic Activation: NONE, Method: PREINCUBATION): inactive; negative
- mutagenic call (Test System: AMES SALMONELLA TYPHIMURIUM, Strain/Indicator: TA100, Metabolic Activation: PLANT, HOMOGENATE, S-14, Method: STANDARD PLATE): inactive; negative
- mutagenic call (Test System: AMES SALMONELLA TYPHIMURIUM, Strain/Indicator: TA100, Metabolic Activation: RAT, LIVER, S-9, AROCLOR 1254 (10%), Method: PREINCUBATION): inactive; negative
- mutagenic call (Test System: AMES SALMONELLA TYPHIMURIUM, Strain/Indicator: TA100, Metabolic Activation: RAT, LIVER, S-9, AROCLOR 1254, Method: STANDARD PLATE): inactive; negative
- mutagenic call (Test System: AMES SALMONELLA TYPHIMURIUM, Strain/Indicator: TA100, Metabolic Activation: RAT, LIVER, S-9, PHENOBARBITAL AND BETA-NAPHTHOFLAVONE, Method: PREINCUBATION): inactive; negative
- mutagenic call (Test System: AMES SALMONELLA TYPHIMURIUM, Strain/Indicator: TA100, Metabolic Activation: RAT, LIVER, S-9, PHENOBARBITAL AND BETA-NAPHTHOFLAVONE, Method: STANDARD PLATE): inactive; negative
- mutagenic call (Test System: AMES SALMONELLA TYPHIMURIUM, Strain/Indicator: TA100, Metabolic Activation: RAT, LIVER, S-9, PHENOBARBITONE, Method: PREINCUBATION): inactive; negative
- mutagenic call (Test System: AMES SALMONELLA TYPHIMURIUM, Strain/Indicator: TA100, Metabolic Activation: S-9, Method: STANDARD PLATE): inactive; negative
- mutagenic call (Test System: AMES SALMONELLA TYPHIMURIUM, Strain/Indicator: TA102, Metabolic Activation: NONE, Method: PREINCUBATION): inactive; negative
- mutagenic call (Test System: AMES SALMONELLA TYPHIMURIUM, Strain/Indicator: TA102, Metabolic Activation: NONE, Method: STANDARD PLATE): inactive; negative
- mutagenic call (Test System: AMES SALMONELLA TYPHIMURIUM, Strain/Indicator: TA102, Metabolic Activation: RAT, LIVER, S-9, PHENOBARBITAL AND BETA-NAPHTHOFLAVONE, Method: PREINCUBATION): inactive; negative
- mutagenic call (Test System: AMES SALMONELLA TYPHIMURIUM, Strain/Indicator: TA102, Metabolic Activation: RAT, LIVER, S-9, PHENOBARBITAL AND BETA-NAPHTHOFLAVONE, Method: STANDARD PLATE): inactive; negative
- mutagenic call (Test System: AMES SALMONELLA TYPHIMURIUM, Strain/Indicator: TA1535, Metabolic Activation: HAMSTER, LIVER, S-9, AROCLOR 1254 (10%), Method: PREINCUBATION): inactive; negative
- mutagenic call (Test System: AMES SALMONELLA TYPHIMURIUM, Strain/Indicator: TA1535, Metabolic Activation: NONE, Method: PREINCUBATION): inactive; negative
- mutagenic call (Test System: AMES SALMONELLA TYPHIMURIUM, Strain/Indicator: TA1535, Metabolic Activation: PLANT, HOMOGENATE, S-14, Method: STANDARD PLATE): inactive; negative
- mutagenic call (Test System: AMES SALMONELLA TYPHIMURIUM, Strain/Indicator: TA1535, Metabolic Activation: RAT, LIVER, S-9, AROCLOR 1254 (10%), Method: PREINCUBATION): inactive; negative
- mutagenic call (Test System: AMES SALMONELLA TYPHIMURIUM, Strain/Indicator: TA1535, Metabolic Activation: RAT, LIVER, S-9, AROCLOR 1254, Method: STANDARD PLATE): inactive; negative
- mutagenic call (Test System: AMES SALMONELLA TYPHIMURIUM, Strain/Indicator: TA1535, Metabolic Activation: RAT, LIVER, S-9, PHENOBARBITAL AND BETA-NAPHTHOFLAVONE, Method: PREINCUBATION): inactive; negative
- mutagenic call (Test System: AMES SALMONELLA TYPHIMURIUM, Strain/Indicator: TA1535, Metabolic Activation: RAT, LIVER, S-9, PHENOBARBITAL AND BETA-NAPHTHOFLAVONE, Method: STANDARD PLATE): inactive; negative
- mutagenic call (Test System: AMES SALMONELLA TYPHIMURIUM, Strain/Indicator: TA1535, Metabolic Activation: S-9, Method: STANDARD PLATE): inactive; negative
- mutagenic call (Test System: AMES SALMONELLA TYPHIMURIUM, Strain/Indicator: TA1537, Metabolic Activation: HAMSTER, LIVER, S-9, AROCLOR 1254 (10%), Method: PREINCUBATION): active; positive
- mutagenic call (Test System: AMES SALMONELLA TYPHIMURIUM, Strain/Indicator: TA1537, Metabolic Activation: NONE, Method: PREINCUBATION): inactive; negative
- mutagenic call (Test System: AMES SALMONELLA TYPHIMURIUM, Strain/Indicator: TA1537, Metabolic Activation: RAT, LIVER, S-9, AROCLOR 1254 (10%), Method: PREINCUBATION): active; positive
- mutagenic call (Test System: AMES SALMONELLA TYPHIMURIUM, Strain/Indicator: TA1537, Metabolic Activation: RAT, LIVER, S-9, AROCLOR 1254, Method: STANDARD PLATE): inactive; negative
- mutagenic call (Test System: AMES SALMONELLA TYPHIMURIUM, Strain/Indicator: TA1537, Metabolic Activation: RAT, LIVER, S-9, PHENOBARBITAL AND BETA-NAPHTHOFLAVONE, Method: PREINCUBATION): active; positive
- mutagenic call (Test System: AMES SALMONELLA TYPHIMURIUM, Strain/Indicator: TA1537, Metabolic Activation: RAT, LIVER, S-9, PHENOBARBITAL AND BETA-NAPHTHOFLAVONE, Method: STANDARD PLATE): inactive; negative
- mutagenic call (Test System: AMES SALMONELLA TYPHIMURIUM, Strain/Indicator: TA1538, Metabolic Activation: NONE, Method: PREINCUBATION): inactive; negative
- mutagenic call (Test System: AMES SALMONELLA TYPHIMURIUM, Strain/Indicator: TA1538, Metabolic Activation: NONE, Method: STANDARD PLATE): inactive; negative
- mutagenic call (Test System: AMES SALMONELLA TYPHIMURIUM, Strain/Indicator: TA1538, Metabolic Activation: RAT, LIVER, S-9, AROCLOR 1254, Method: STANDARD PLATE): inactive; negative
- mutagenic call (Test System: AMES SALMONELLA TYPHIMURIUM, Strain/Indicator: TA1538, Metabolic Activation: RAT, LIVER, S-9, PHENOBARBITAL AND BETA-NAPHTHOFLAVONE, Method: PREINCUBATION): active; positive
- mutagenic call (Test System: AMES SALMONELLA TYPHIMURIUM, Strain/Indicator: TA1538, Metabolic Activation: RAT, LIVER, S-9, PHENOBARBITAL AND BETA-NAPHTHOFLAVONE, Method: STANDARD PLATE): active; positive
- mutagenic call (Test System: Mouse lymphoma, Strain/Indicator: L5178Y (tk+/tk-)/Trifluorothymidine, Metabolic Activation: None, Method: Microtiter): active; positive
